Results from PubChem BioAssay AID328 (DTP/NCI, 2004).
“And” between values parts separate entries of the source, which are not always exact repeats. Equal entries are not always repeated. Toxic doses and inconclusive results are not listed.

Tested on: BDF1 mice, P388 leukemia ip, median survival T/C
Assay: NCI In Vivo Anticancer Drug Screen. Data for tumor model P388 Leukemia (intraperitoneal) in B6D2F1 (BDF1) mice
Conditions: endpoint: median survival time, higher = longer survival
How it was run: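 Antitumour effect was judged in vivo: survival in drug-treated mice, normalised to that of vehicle-dosed controls, gives the reported T/C.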

[1] = dose: 25.0 mg/kg/injection, schedule: Q04DX003 (ip), vehicle: saline with Tween-80
[2] = dose: 50.0 mg/kg/injection, schedule: Q04DX003 (ip), vehicle: saline with Tween-80
[3] = dose: 100.0 mg/kg/injection, schedule: Q04DX003 (ip), vehicle: saline with Tween-80
[4] = dose: 100.0 mg/kg/injection, schedule: Q01DX009 (ip), vehicle: saline with Tween-80
[5] = dose: 200.0 mg/kg/injection, schedule: Q01DX009 (ip), vehicle: saline with Tween-80
[6] = dose: 200.0 mg/kg/injection, schedule: Q04DX003 (ip), vehicle: saline with Tween-80
[7] = dose: 400.0 mg/kg/injection, schedule: Q04DX003 (ip), vehicle: saline with Tween-80
[8] = dose: 100.0 mg/kg/injection, schedule: Q04DX003 (ip), vehicle: saline
[9] = dose: 200.0 mg/kg/injection, schedule: Q04DX003 (ip), vehicle: saline
[10] = dose: 400.0 mg/kg/injection, schedule: Q04DX003 (ip), vehicle: saline
[11] = dose: 50.0 mg/kg/injection, schedule: Q01DX009 (ip), vehicle: saline with Tween-80
[12] = dose: 50.0 mg/kg/injection, schedule: Q04DX003 (ip), vehicle: saline
[13] = dose: 100.0 mg/kg/injection, schedule: Q04DX003 (ip), vehicle: Klucel (hydroxypropylcellulose) (HPC)
[14] = dose: 200.0 mg/kg/injection, schedule: Q04DX003 (ip), vehicle: Klucel (hydroxypropylcellulose) (HPC)
[15] = dose: 50.0 mg/kg/injection, schedule: Q01DX009 (ip), vehicle: Klucel (hydroxypropylcellulose) (HPC)
[16] = dose: 25.0 mg/kg/injection, schedule: Q01DX009 (ip), vehicle: saline with Tween-80

CC(C)(C)Cc1cc(O)c2c(c1O)C(=O)c1ccccc1C2=O
T/C [1]: 100 % of control
T/C [2]: 102 % of control
T/C [3]: 95 % of control

Cc1ccc(C2(C#N)CC2)cc1
T/C [4]: 108 % of control
T/C [3]: 100 % of control
T/C [5]: 112 % of control
T/C [6]: 108 % of control
T/C (dose: 400.0 mg/kg/injection, schedule: Q01DX009 (ip), vehicle: saline with Tween-80): 116 % of control
T/C [7]: 116 % of control

O=C(O)C1OC12CCCCC2 (centres undefined)
T/C [8]: 91 % of control
T/C [9]: 91 % of control
T/C [10]: 91 % of control

CCN(C(=S)Nc1cccc(OC)c1)c1ccccc1
T/C [11]: 101 % of control
T/C [4]: 99 % of control
T/C [5]: 101 % of control

COc1cc2c3c(c1O)C1(C=CC(=O)C=C1)CC3N(C)CC2 (centres undefined)
T/C [11]: 112 % of control
T/C [4]: 115 % of control

CC1CC2OC(=O)C3=C2C(CCC3)C12CC(c1ccoc1)OC2=O (centres undefined)
T/C (dose: 25.0 mg/kg/injection, schedule: Q01DX001 (ip), vehicle: saline with Tween-80): 111 % of control
T/C (dose: 50.0 mg/kg/injection, schedule: Q01DX001 (ip), vehicle: saline with Tween-80): 106 % of control
T/C (dose: 100.0 mg/kg/injection, schedule: Q01DX001 (ip), vehicle: saline with Tween-80): 106 % of control
T/C (dose: 200.0 mg/kg/injection, schedule: Q01DX001 (ip), vehicle: saline with Tween-80): 116 % of control

COc1ccc(CNCCO)cc1
T/C [12]: 108 % of control
T/C (dose: 100.0 mg/kg/injection, schedule: Q01DX009 (ip), vehicle: saline): 109 % of control
T/C [8]: 100 % of control and 116 % of control
T/C (dose: 200.0 mg/kg/injection, schedule: Q01DX009 (ip), vehicle: saline): 90 % of control
T/C [9]: 91 % of control
T/C (dose: 400.0 mg/kg/injection, schedule: Q01DX009 (ip), vehicle: saline): 111 % of control
T/C [10]: 91 % of control and 95 % of control

[O-]/C(CCl)=N\[n+]1c2c(nc3ccccc31)-c1cccc3cccc-2c13
T/C (dose: 12.5 mg/kg/injection, schedule: Q01DX001 (ip), vehicle: Klucel (hydroxypropylcellulose) (HPC)): 105 % of control
T/C (dose: 25.0 mg/kg/injection, schedule: Q01DX001 (ip), vehicle: Klucel (hydroxypropylcellulose) (HPC)): 102 % of control

CCCC(Cc1ccccc1)(C(=O)OCC)C(=O)OCC
T/C [3]: 99 % of control
T/C [6]: 99 % of control
T/C [7]: 91 % of control

C[n+]1cccc2c3ccccc3c(-c3ccccc3)cc21
T/C (dose: 0.39 mg/kg/injection, schedule: Q01DX009 (ip), vehicle: water): 101 % of control
T/C (dose: 0.78 mg/kg/injection, schedule: Q01DX009 (ip), vehicle: water): 90 % of control and 106 % of control
T/C (dose: 1.56 mg/kg/injection, schedule: Q01DX009 (ip), vehicle: water): 89 % of control and 94 % of control and 103 % of control
T/C (dose: 3.12 mg/kg/injection, schedule: Q01DX009 (ip), vehicle: water): 87 % of control and 93 % of control and 116 % of control
T/C (dose: 6.25 mg/kg/injection, schedule: Q01DX009 (ip), vehicle: water): 98 % of control and 104 % of control and 122 % of control
T/C (dose: 6.25 mg/kg/injection, schedule: Q04DX003 (ip), vehicle: water): 90 % of control
T/C (dose: 12.5 mg/kg/injection, schedule: Q01DX009 (ip), vehicle: water): 100 % of control and 111 % of control
T/C (dose: 12.5 mg/kg/injection, schedule: Q04DX003 (ip), vehicle: water): 103 % of control
T/C (dose: 25.0 mg/kg/injection, schedule: Q04DX003 (ip), vehicle: water): 112 % of control
T/C (dose: 50.0 mg/kg/injection, schedule: Q01DX009 (ip), vehicle: water): 113 % of control

CC1(C)N=C(N)N=C(N)N1c1ccc(CCCCc2ccc(Cl)c(S(=O)(=O)F)c2)c(Cl)c1
T/C (dose: 0.88 mg/kg/injection, schedule: Q01DX009 (ip), vehicle: saline): 118 % of control
T/C (dose: 1.32 mg/kg/injection, schedule: Q01DX009 (ip), vehicle: saline): 109 % of control
T/C (dose: 2.36 mg/kg/injection, schedule: Q04DX003 (ip), vehicle: saline): 106 % of control
T/C (dose: 3.56 mg/kg/injection, schedule: Q04DX003 (ip), vehicle: saline): 123 % of control
T/C (dose: 5.33 mg/kg/injection, schedule: Q04DX003 (ip), vehicle: saline): 108 % of control
T/C (dose: 8.0 mg/kg/injection, schedule: Q04DX003 (ip), vehicle: saline): 115 % of control
T/C (dose: 8.33 mg/kg/injection, schedule: Q04DX003 (ip), vehicle: saline): 120 % of control
T/C (dose: 12.0 mg/kg/injection, schedule: Q01DX009 (ip), vehicle: saline): 163 % of control
T/C (dose: 12.5 mg/kg/injection, schedule: Q04DX003 (ip), vehicle: saline): 181 % of control
T/C (dose: 18.0 mg/kg/injection, schedule: Q01DX009 (ip), vehicle: saline): 159 % of control
T/C (dose: 25.0 mg/kg/injection, schedule: Q01DX009 (ip), vehicle: saline): 104 % of control
T/C (dose: 50.0 mg/kg/injection, schedule: Q01DX009 (ip), vehicle: saline): 104 % of control
T/C [12]: 113 % of control

CC(=O)OC1(C)CC(C)(C)N=[N+]1[O-] (centres undefined)
T/C (dose: 12.5 mg/kg/injection, schedule: Q01DX005 (ip), vehicle: other): 103 % of control
T/C (dose: 25.0 mg/kg/injection, schedule: Q01DX005 (ip), vehicle: other): 103 % of control
T/C (dose: 50.0 mg/kg/injection, schedule: Q01DX005 (ip), vehicle: other): 121 % of control
T/C (dose: 100.0 mg/kg/injection, schedule: Q01DX005 (ip), vehicle: other): 103 % of control
T/C (dose: 200.0 mg/kg/injection, schedule: Q01DX005 (ip), vehicle: other): 109 % of control

COC(=O)c1c(C(=O)OC)c1=[N+]=[N-]
T/C [11]: 101 % of control
T/C [4]: 96 % of control
T/C [5]: 99 % of control

COc1cc2ccc(CC(=O)NCCc3ccc4c(c3)OCO4)cc2cc1OC
T/C [13]: 100 % of control
T/C [14]: 90 % of control
T/C (dose: 400.0 mg/kg/injection, schedule: Q04DX003 (ip), vehicle: Klucel (hydroxypropylcellulose) (HPC)): 90 % of control

O=C1C(Cl)CCCCC1Cl (centres undefined)
T/C [15]: 100 % of control
T/C (dose: 100.0 mg/kg/injection, schedule: Q01DX009 (ip), vehicle: Klucel (hydroxypropylcellulose) (HPC)): 100 % of control
T/C (dose: 200.0 mg/kg/injection, schedule: Q01DX009 (ip), vehicle: Klucel (hydroxypropylcellulose) (HPC)): 115 % of control

CC(c1ccccc1)(c1ccccc1)c1ccccc1
T/C [11]: 101 % of control
T/C [4]: 101 % of control
T/C [5]: 97 % of control

C=[CH][Sn][CH2]CCC
T/C (dose: 12.5 mg/kg/injection, schedule: Q01DX009 (ip), vehicle: Klucel (hydroxypropylcellulose) (HPC)): 100 % of control
T/C (dose: 25.0 mg/kg/injection, schedule: Q01DX009 (ip), vehicle: Klucel (hydroxypropylcellulose) (HPC)): 103 % of control
T/C [15]: 99 % of control

COC(=O)c1cc(=O)n(-c2cccc(F)c2)c(SC)n1
T/C [13]: 114 % of control
T/C [14]: 114 % of control

CCOc1c(Cl)cc(Cl)cc1C(c1ccc(Cl)cc1S(=O)(=O)O)c1cc(Cl)cc(Cl)c1OCC
T/C [16]: 108 % of control
T/C [11]: 116 % of control

CCCCS(=N)(=O)CC[C@H](N)C(=O)O (some centres undefined)
T/C (dose: 50.0 mg/kg/injection, schedule: Q01DX005 (ip), vehicle: saline): 96 % of control
T/C (dose: 100.0 mg/kg/injection, schedule: Q01DX005 (ip), vehicle: saline): 96 % of control
T/C (dose: 200.0 mg/kg/injection, schedule: Q01DX005 (ip), vehicle: saline): 91 % of control
T/C (dose: 400.0 mg/kg/injection, schedule: Q01DX005 (ip), vehicle: saline): 91 % of control

O=C(CC(O)(C(F)(F)F)C(F)(F)F)c1ccc(Cl)cc1
T/C [11]: 108 % of control
T/C [4]: 95 % of control
T/C [5]: 108 % of control

NNC(=O)c1ccc(Cl)c(Cl)c1
T/C (dose: 6.25 mg/kg/injection, schedule: Q01DX009 (ip), vehicle: saline with Tween-80): 113 % of control
T/C (dose: 12.5 mg/kg/injection, schedule: Q01DX009 (ip), vehicle: saline with Tween-80): 86 % of control
T/C (dose: 12.5 mg/kg/injection, schedule: Q04DX003 (ip), vehicle: saline with Tween-80): 98 % of control
T/C [16]: 89 % of control
T/C [1]: 107 % of control
T/C [11]: 104 % of control
T/C [2]: 107 % of control
T/C (dose: 100.0 mg/kg/injection, schedule: Q01DX001 (ip), vehicle: saline sonified): 91 % of control
T/C [4]: 97 % of control
T/C [3]: 107 % of control
T/C (dose: 200.0 mg/kg/injection, schedule: Q01DX001 (ip), vehicle: saline sonified): 100 % of control
T/C [6]: 107 % of control
